# Experimental data as given in US20120040976A1, “SMALL MOLECULE IMMUNOMODULATORS FOR ALZHEIMER'S DISEASE” (HUMAN BIOMOLECULAR RESEARCH INSTITUTE, priority 2008, published 2012).
# Assays:
# [1] = tested on: MGAT3; assay: MGAT3 gene expression by qPCR in U-937 human monocytic cells treated with curcumins plus Aβ; type: cell-based; conditions: human monocytic cells (U-937), curcumin plus Aβ
# Procedure: (§1) Cell culture conditions for monocytic cell lines. Human and mouse monocyte cell lines are grown in RPMI-1640 medium with 10% fetal bovine serum (FBS), plus glutamine and pen/strep. For treatment with compounds (curcuminoids+/−Aβ), replicate sets of 0.5-1.0 mL cultures containing 1-2×10^6 cells are set up in the wells of 48-well tissue culture plates. Both replicate sets have at least one control well receiving no added curcuminoid to provide baseline expression controls for untreated, and Aβ-only treated cells. Remaining wells receive curcuminoid in a range of 10-fold serial dilutions in DMSO, typically from […] Cultures are incubated for 20-24 hours (“overnight”) at 37° C. in atmosphere with 5% CO2. After one overnight, to one of replicate sets of cultures is added Aβ (1-42) peptide to a final concentration of 5 μg/mL.
# (§2) RNA isolation and cDNA synthesis. After the first overnight incubation in the presence of curcuminoid, cells from one replicate set of wells are collected by centifugation. RNAs are extracted from pelleted cells using miniprep column kits following manufacturer's protocol for animal cells. […] of total cellular RNA from each well is quantitated using a Nanodrop spectrophotometer, and first-strand total cDNA is prepared from 0.3-1.0 μg RNA by random-hexamer priming. Following the second 20 hr. incubation in the presence of Aβ, RNA extractions and cDNA synthesis are similarly performed.
# Assay development. Gene-specific mRNA levels are determined using a real-time thermocycler, and by normalizing to expression of one or more control genes. Assays for quantifying mRNA levels are based on gene sequences reported in NCBI Genbank. PCR oligonucleotide primers are selected spanning introns to minimize the opportunity for amplication from any contaminating genomic DNA in the RNA preps. Oligonucleotides are typically tested and used at a concentration of 200 nM in qPCR reactions containing SYBR dye. Control reactions include template from cDNA synthesis reactions either + or − reverse transcriptase (RT), as well as no-template controls (ntc). […] Melt curves based on incremental 0.5° C. increases are determined for new assays to test for uniformity of amplified products. […]
# qPCR reactions of cultured monocyte cDNAs. […] SYBR-Green reactions were run on a Continuous Fluorescence real-time thermocycler and analyzed. Cycle threshold (Ct) values are recorded for each replicate reaction, and are then averaged and normalized against mean Ct values from one or more control genes. Fold-expression differences relative to untreated cells are determined using the 2^−ΔΔCt method as previously described. […] Data are also evaluated for each gene with regard to sensitivity, maximally effective concentration of curcuminoid, response to Aβ, and overall magnitude of fold-expression changes. […]
# [2] = tested on: TLR2; assay: TLR2 gene expression by qPCR in U-937 human monocytic cells treated with curcumins plus Aβ; type: cell-based; conditions: for Relative gene expression TLR2, increased expression relative to control cells: human monocytic cells (U-937), curcumin plus Aβ
# Procedure: as §1, §2
# (§3) Assay development. Gene-specific mRNA levels are determined using a real-time thermocycler, and by normalizing to expression of one or more control genes. Assays for quantifying mRNA levels are based on gene sequences reported in NCBI Genbank. PCR oligonucleotide primers are selected spanning introns to minimize the opportunity for amplication from any contaminating genomic DNA in the RNA preps. Oligonucleotides are typically tested and used at a concentration of 200 nM in qPCR reactions containing SYBR dye. Control reactions include template from cDNA synthesis reactions either + or − reverse transcriptase (RT), as well as no-template controls (ntc). All reactions are performed in triplicate. Reactions are typically run with 40 cycles of 95° C. (10 sec) and 58° C. (30 sec). Melt curves based on incremental 0.5° C. increases are determined for new assays to test for uniformity of amplified products. Reaction conditions are modified as needed depending on initial test results. ‘Working’ assays are selected based on clear RNA-dependent amplification and absence of product in ‘ntc’ reactions. The following assay primers are used: […]
# (§4) qPCR reactions of cultured monocyte cDNAs. One μL total cellular cDNA per reaction is used in triplicate reactions for each test gene, and for each culture treatment. SYBR-Green reactions were run on a Continuous Fluorescence real-time thermocycler and analyzed. Cycle threshold (Ct) values are recorded for each replicate reaction, and are then averaged and normalized against mean Ct values from one or more control genes. Fold-expression differences relative to untreated cells are determined using the 2^−ΔΔCt method as previously described. […] Data are also evaluated for each gene with regard to sensitivity, maximally effective concentration of curcuminoid, response to Aβ, and overall magnitude of fold-expression changes. […]
# [3] = tested on: TLR3; assay: TLR3 gene expression by qPCR in U-937 human monocytic cells treated with curcumins plus Aβ; type: cell-based; conditions: for TLR3 expression response (in words): U-937, plus Aβ (FIG. 3); for Relative gene expression TLR3, increased expression relative to control cells: human monocytic cells (U-937), curcumin plus Aβ
# Procedure: as §1, §2, §3
# (§5) qPCR reactions of cultured monocyte cDNAs. One μL total cellular cDNA per reaction is used in triplicate reactions for each test gene, and for each culture treatment. SYBR-Green reactions were run on a Continuous Fluorescence real-time thermocycler and analyzed. Cycle threshold (Ct) values are recorded for each replicate reaction, and are then averaged and normalized against mean Ct values from one or more control genes. Fold-expression differences relative to untreated cells are determined using the 2^−ΔΔCt method as previously described. Data from the curcumin concentration range are plotted in order to determine EC50 values (concentrations producing one-half maximal stimulant activity), which are used for comparisons of potency between different compounds. Data are also evaluated for each gene with regard to sensitivity, maximally effective concentration of curcuminoid, response to Aβ, and overall magnitude of fold-expression changes.
# (§6) Data showing in vitro up-regulation of genes associated with Aβ phagocytosis in response to curcumins. Natural curcumins and synthetic analogs were tested in U-937 human monocyte cells in vitro for their ability to modulate expression of the genes MGAT3 and TLRs −2, −3, and −4. […]
# [4] = tested on: TLR4; assay: TLR4 gene expression by qPCR in U-937 human monocytic cells treated with curcumins plus Aβ; type: cell-based; conditions: for Relative gene expression TLR4, increased expression relative to control cells: human monocytic cells (U-937), curcumin plus Aβ
# Procedure: as §1, §2, §3, §4
# [5] = tested on: VDR; assay: VDR gene expression by qPCR in U-937 human monocytic cells treated with curcumins plus Aβ; type: cell-based; conditions: for Relative gene expression VDR, increased expression relative to control cells: human monocytic cells (U-937), curcumin plus Aβ
# Procedure: as §1, §2, §3, §5, §6
# [6] = Metabolic stability in human liver microsomes; type: in vitro ADME; conditions: human, read-out: Half life, t1/2 HLM
# [7] = Metabolic stability in human S9 fraction; type: in vitro ADME; conditions: read-out: Half life, t1/2 S9
# [8] = Chemical stability (H2O, pH 7.4); type: physicochemical
# [9] = Anti-oxidant activity
# [10] = Average permeability; type: in vitro ADME; conditions: not told
# [11] = Average solubility; type: physicochemical
# [12] = tested on: MGAT3; assay: MGAT3 transcription ratio, AD patient / control PBMCs (qPCR); type: cell-based, human; conditions: Aβ stimulation
# Procedure: as §5
# (§7) MGAT3 and/or TLR transcription were tested by qPCR in human monocyte cells treated with curcuminoids and compared the results to those treated with vehicle (Table 7). As discussed above, activation or up-regulation of macrophage MGAT3 or TLR's results in many functional outcomes, including the enhancement of […] and removal of Aβ, increased apoptosis, secretion of inflammatory cytokines, and other anti-AD antimicrobial activities. […] Thus, the ratio of MGAT3 or TLR transcription upon Aβ stimulation of human monocytes versus vehicle treatment provides an indicator and sensitive method to test the in vitro efficacy of drug candidates. […] The relative biological activity of the curcumin analogs in AD patient and control cells was ascertained in the in vitro Aβ assay described above (see Example 2).
# [13] = tested on: TLR 2; assay: TLR 2 transcription ratio, AD patient / control PBMCs (qPCR); type: cell-based, human; conditions: Aβ stimulation
# Procedure: as §5, §7
# [14] = tested on: TLR 3; assay: TLR 3 transcription ratio, AD patient / control PBMCs (qPCR); type: cell-based, human; conditions: Aβ stimulation
# Procedure: as §5, §7
# [15] = tested on: TLR 4; assay: TLR 4 transcription ratio, AD patient / control PBMCs (qPCR); type: cell-based, human; conditions: Aβ stimulation
# Procedure: as §5, §7
# [16] = tested on: cortical neurons in hAPP-transfected rat brain slices; assay: Rat brain slice AD model (hAPP-induced neurodegeneration); type: cell-based; conditions: rat brain slices transfected with EYFP and hAPP, three concentrations, 72 hrs (FIG. 8)
# Source text: A rodent brain slice model for AD has been developed where the expression of human APP by particle-mediated gene transfer (“biolistics”) leads to typical signs of neuronal dystrophy, and ultimately the degeneration and clearance of the cell body with a few days. Brain slice preparations offer a powerful experimental system because they preserve the three-dimensional tissue architecture and local environment of neurons and glia far better than dissociated cell culture. As such, drug lead candidates that show neuroprotective activity in brain-tissue based disease models have a much increased ability to predict efficacy in vivo and ultimately in the clinic.
# Preparation of Brain Slice Explants. Cd Sprague-Dawley Rat Pups are Used at Postnatal day 10. Brains are cut into 250 μm coronal slices on a vibratome in chilled medium baths. Approximately 6 such slices can be cut from each rat brain; each are divided into “hemi-coronal” slices which are placed in individual 6-well transwell inserts. […]
# Assessment of cortical neuron health. […] Representative images are captured using a digital camera on a fluorescence microscope. After 3 days, cortical neurons are scored. […] Statistical significance of the neuronal counts in compound-treated slices is evaluated by ANOVA analysis, followed by post hoc Dunnett's analysis at the p≦0.05 confidence level. […]
# [17] = tested on: COX-2; assay: Inhibition of SOD1-induced COX-2 expression in ALS PBMCs; type: cell-based, human; conditions: aggregated wild-type or mutant SOD-1
# Source text: (§8) More recently, it was shown that PBMCs isolated from ALS patients, and to a lesser extent from control subjects, strongly express COX-2 and other cytokines after stimulation with aggregated wild-type or mutant SOD-1. […] It was also shown that mutant SOD-1 induced polarization of ALS PBMCs to the Th17 type, but the induction was inhibited by 10.
# [18] = tested on: ALS PBMCs; assay: Mutant SOD-1 induced polarization of ALS PBMCs to the Th17 type; type: cell-based, human
# Source text: as §8
SMILES,"Relative gene expression MGAT3, increased expression relative to control cells [1]","Relative gene expression TLR2, increased expression relative to control cells [2]",TLR3 expression response (in words) [3],"Relative gene expression TLR3, increased expression relative to control cells [3]","Relative gene expression TLR4, increased expression relative to control cells [4]","Relative gene expression VDR, increased expression relative to control cells [5]",half-life [6] [min],half-life [7] [min],IC50 [9] [µM],Papp [10] [×10⁻⁶ cm/s],solubility [11] [µg/mL],Relative ratio of MGAT3 transcription in AD patient / control PBMC's [12],further results
"CC(C)C(N)C(=O)Oc1ccc(/C=C/C(=O)/C=C(O)/C=C/c2ccc(OC(=O)C(N)C(C)C)cc2)cc1 (stereo not drawn) [Compound 33, 4,4′-(3,5-Dioxohepta-1,6-diene-1,7-diyl)bis(4,1-phenylene) bis(2-amino-3-methylbutanoate)]",+++ ((+++) >40-fold),+ ((+) <20-fold),limited response,+ ((+) <20-fold),+ ((+) <20-fold),++ ((++) >20-fold),23.8,5.9,> 250,316,18.2,+ ((+) indicates a ratio of 1.0-1.5),"VDR normalized expression response (in words) ([5]; human monocytes, plus Aβ): somewhat higher expression; half-life ([8]; water (aqueous solution), pH 7.4, value given in h, read-out: Chemical stability t1/2 pH 7.4 (converted)): 60 min; half-life ([8]; water, H2O, value given in h, read-out: Chemical stability t1/2 H2O (converted)): 1130 min; Solubility compared with parent compounds (in words) [11]: significantly improved solubility; Relative ratio of TLR 2 transcription in AD patient / control PBMC's [13]: TLR 2 ++ ((++) indicates a ratio of 1.5-2.0); Relative ratio of TLR 3 transcription in AD patient / control PBMC's [14]: TLR 3 ++ ((++) indicates a ratio of 1.5-2.0); Relative ratio of TLR 4 transcription in AD patient / control PBMC's [15]: TLR 4 + ((+) indicates a ratio of 1.0-1.5)"
"COc1cc(/C=C/C(=O)/C=C(O)/C=C/c2ccc(O)c(OC)c2)ccc1O [Compound 2, 1,7-Bis(4-hydroxy-3-methoxyphenyl)-5-hydroxy-hepta-1,4,6-trien-3-one, reference compound]",,,,,,,40.8,10.1,31.7,844 ± 24,9.5,+ ((+) indicates a ratio of 1.0-1.5),"half-life ([8]; water (aqueous solution), pH 7.4, read-out: Chemical stability t1/2 pH 7.4 (converted)): 15.9 min; half-life ([8]; water, H2O, read-out: Chemical stability t1/2 H2O (converted)): 73.5 min; Neuroprotective effect against hAPP-induced neurodegeneration [16]: prevent widespread neurodegeneration in a dose-dependent manner"
CN(C)c1ccc(/C=C/C(O)=C2\CCC/C(=C\c3ccc(N(C)C)cc3)C2=O)cc1 [Compound 10],+++ ((+++) >40-fold),++ ((++) >20-fold),considerably higher expression,+++ ((+++) >40-fold),+ ((+) <20-fold),+++++ ((+++++) >1000-fold),127,311,155,,,,"Concentration giving maximal TLR2 expression ([2]; U-937, in the presence of Aβ (FIG. 2)): 1 nM; Concentration giving maximal TLR4 response ([4]; U-937, plus Aβ (FIG. 4)): approximately 10 nM; VDR expression increase ([5]; human monocytes, plus Aβ (FIG. 5)): 10^3 fold; Chemical stability H2O (stable/unstable) ([8]; H2O): stable (stability half-lives greater than 5 hours); Stability compared with BDC (in words) ([8]; chemical and metabolic stability): markedly greater stability than BDC; Chemical stability pH 7.4 (stable/unstable) ([8]; pH 7.4): stable (stability half-lives greater than 5 hours); Induction of COX-2 by SOD-1 after pretreatment [17]: blocked; Induction of Th17 polarization by mutant SOD-1 [18]: inhibited"
